Data reported in ChEMBL document CHEMBL4396865, “Current advances of triazole alcohols derived from fluconazole: Design, in vitro and in silico studies” (2019).
In brackets after ≈: the same amount, converted by molar mass.

Experiments:
Assay type in all cases: functional
[1] = system: Candida albicans; experiment: Antifungal activity against Candida albicans after 24 hrs by NCCLS protocol based method
[2] = system: Candida tropicalis; experiment: Antifungal activity against Candida tropicalis after 24 hrs by NCCLS protocol based method
[3] = system: Cryptococcus neoformans; experiment: Antifungal activity against Cryptococcus neoformans after 72 hrs by NCCLS protocol based method
[4] = system: Trichophyton rubrum; experiment: Antifungal activity against Trichophyton rubrum after 7 days by NCCLS protocol based method; details: 168 h
[5] = system: Candida parapsilosis; experiment: Antifungal activity against Candida parapsilosis after 24 hrs by NCCLS protocol based method; details: Lodderomyces parapsilosis
[6] = system: Fonsecaea compacta; experiment: Antifungal activity against Fonsecaea compacta after 24 hrs by NCCLS protocol based method
[7] = system: Nannizzia gypsea; experiment: Antifungal activity against Microsporum gypseum after 7 days by NCCLS protocol based method; details: 168 h

SMILES	MIC80 [1] [ng/mL]	MIC80 [2] [ng/mL]	MIC80 [3] [ng/mL]	MIC80 [4] [ng/mL]	MIC80 [5] [ng/mL]	MIC80 [6] [ng/mL]	MIC [1] [ng/mL]	MIC [2] [ng/mL]	MIC [3] [ng/mL]	MIC [4] [ng/mL]	MIC [7] [ng/mL]
O=C(OC1CCN(CC(O)(Cn2cncn2)c2ccc(F)cc2F)CC1)c1cccc([N+](=O)[O-])c1 (stereo unspecified)	3.9 to 62.5 (≈ 8 to 128 nM)	3.9 to 62.5 (≈ 8 to 128 nM)	3.9 to 62.5 (≈ 8 to 128 nM)	3.9 to 62.5 (≈ 8 to 128 nM)	3.9 to 62.5 (≈ 8 to 128 nM)	3.9 to 62.5 (≈ 8 to 128 nM)					
CCCCCc1ccc(C(=O)OC2CCN(CC(O)(Cn3cncn3)c3ccc(F)cc3F)CC2)cc1 (stereo unspecified)	3.9 to 62.5 (≈ 7.61 to 122 nM)	3.9 to 62.5 (≈ 7.61 to 122 nM)	3.9 to 62.5 (≈ 7.61 to 122 nM)	3.9 to 62.5 (≈ 7.61 to 122 nM)	3.9 to 62.5 (≈ 7.61 to 122 nM)	3.9 to 62.5 (≈ 7.61 to 122 nM)					
CCCc1ccc(C(=O)OC2CCN(CC(O)(Cn3cncn3)c3ccc(F)cc3F)CC2)cc1 (stereo unspecified)	3.9 to 62.5 (≈ 8.05 to 129 nM)	3.9 to 62.5 (≈ 8.05 to 129 nM)	3.9 to 62.5 (≈ 8.05 to 129 nM)	3.9 to 62.5 (≈ 8.05 to 129 nM)	3.9 to 62.5 (≈ 8.05 to 129 nM)	3.9 to 62.5 (≈ 8.05 to 129 nM)					
Cc1ccccc1OCCCN(C)CC(O)(Cn1cncn1)c1ccc(F)cc1F (stereo unspecified)							1 to 16 (≈ 2.4 to 38.4 nM)	1 to 16 (≈ 2.4 to 38.4 nM)	1 to 16 (≈ 2.4 to 38.4 nM)	1 to 16 (≈ 2.4 to 38.4 nM)	1 to 16 (≈ 2.4 to 38.4 nM)
CN(CCCCOc1ccc([N+](=O)[O-])cc1)CC(O)(Cn1cncn1)c1ccc(F)cc1F (stereo unspecified)							1 (≈ 2.17 nM)	1 (≈ 2.17 nM)	1 (≈ 2.17 nM)	1 (≈ 2.17 nM)	1 (≈ 2.17 nM)
Cc1cccc(C(=O)OC2CCN(CC(O)(Cn3cncn3)c3ccc(F)cc3F)CC2)c1 (stereo unspecified)	3.9 to 62.5 (≈ 8.54 to 137 nM)	3.9 to 62.5 (≈ 8.54 to 137 nM)	3.9 to 62.5 (≈ 8.54 to 137 nM)	3.9 to 62.5 (≈ 8.54 to 137 nM)	3.9 to 62.5 (≈ 8.54 to 137 nM)	3.9 to 62.5 (≈ 8.54 to 137 nM)					
Cc1ccc(OCCCCN(C)CC(O)(Cn2cncn2)c2ccc(F)cc2F)cc1 (stereo unspecified)							1 (≈ 2.32 nM)	1 (≈ 2.32 nM)	1 (≈ 2.32 nM)	1 (≈ 2.32 nM)	1 (≈ 2.32 nM)
O=C(OC1CCN(CC(O)(Cn2cncn2)c2ccc(F)cc2F)CC1)c1ccccc1I (stereo unspecified)	3.9 to 62.5 (≈ 6.86 to 110 nM)	3.9 to 62.5 (≈ 6.86 to 110 nM)	3.9 to 62.5 (≈ 6.86 to 110 nM)	3.9 to 62.5 (≈ 6.86 to 110 nM)	3.9 to 62.5 (≈ 6.86 to 110 nM)	3.9 to 62.5 (≈ 6.86 to 110 nM)					
CN(CCCCOc1ccccc1[N+](=O)[O-])CC(O)(Cn1cncn1)c1ccc(F)cc1F (stereo unspecified)							1 to 16 (≈ 2.17 to 34.7 nM)	1 to 16 (≈ 2.17 to 34.7 nM)	1 to 16 (≈ 2.17 to 34.7 nM)	1 to 16 (≈ 2.17 to 34.7 nM)	1 to 16 (≈ 2.17 to 34.7 nM)
CCCCCCc1ccc(C(=O)OC2CCN(CC(O)(Cn3cncn3)c3ccc(F)cc3F)CC2)cc1 (stereo unspecified)	3.9 to 62.5 (≈ 7.41 to 119 nM)	3.9 to 62.5 (≈ 7.41 to 119 nM)	3.9 to 62.5 (≈ 7.41 to 119 nM)	3.9 to 62.5 (≈ 7.41 to 119 nM)	3.9 to 62.5 (≈ 7.41 to 119 nM)	3.9 to 62.5 (≈ 7.41 to 119 nM)					
Cc1ccccc1C(=O)OC1CCN(CC(O)(Cn2cncn2)c2ccc(F)cc2F)CC1 (stereo unspecified)	3.9 to 62.5 (≈ 8.54 to 137 nM)	3.9 to 62.5 (≈ 8.54 to 137 nM)	3.9 to 62.5 (≈ 8.54 to 137 nM)	3.9 to 62.5 (≈ 8.54 to 137 nM)	3.9 to 62.5 (≈ 8.54 to 137 nM)	3.9 to 62.5 (≈ 8.54 to 137 nM)					
CN(CCCCOc1ccc(Cl)cc1)CC(O)(Cn1cncn1)c1ccc(F)cc1F (stereo unspecified)							1 (≈ 2.22 nM)	1 (≈ 2.22 nM)	1 (≈ 2.22 nM)	1 (≈ 2.22 nM)	1 (≈ 2.22 nM)
CN(CCCOc1ccc(C(C)(C)C)cc1)CC(O)(Cn1cncn1)c1ccc(F)cc1F (stereo unspecified)							1 to 16 (≈ 2.18 to 34.9 nM)	1 to 16 (≈ 2.18 to 34.9 nM)	1 to 16 (≈ 2.18 to 34.9 nM)	1 to 16 (≈ 2.18 to 34.9 nM)	1 to 16 (≈ 2.18 to 34.9 nM)
Cc1cccc(OCCCCN(C)CC(O)(Cn2cncn2)c2ccc(F)cc2F)c1 (stereo unspecified)							1 (≈ 2.32 nM)	1 (≈ 2.32 nM)	1 (≈ 2.32 nM)	1 (≈ 2.32 nM)	1 (≈ 2.32 nM)
COc1ccc(C(=O)OC2CCN(CC(O)(Cn3cncn3)c3ccc(F)cc3F)CC2)cc1OC (stereo unspecified)	3.9 to 62.5 (≈ 7.76 to 124 nM)	3.9 to 62.5 (≈ 7.76 to 124 nM)	3.9 to 62.5 (≈ 7.76 to 124 nM)	3.9 to 62.5 (≈ 7.76 to 124 nM)	3.9 to 62.5 (≈ 7.76 to 124 nM)	3.9 to 62.5 (≈ 7.76 to 124 nM)					
CN(CCCOc1ccccc1Cl)CC(O)(Cn1cncn1)c1ccc(F)cc1F (stereo unspecified)							1 to 16 (≈ 2.29 to 36.6 nM)	1 to 16 (≈ 2.29 to 36.6 nM)	1 to 16 (≈ 2.29 to 36.6 nM)	1 to 16 (≈ 2.29 to 36.6 nM)	1 to 16 (≈ 2.29 to 36.6 nM)
CN(CCCCOc1cccc([N+](=O)[O-])c1)CC(O)(Cn1cncn1)c1ccc(F)cc1F (stereo unspecified)							1 to 16 (≈ 2.17 to 34.7 nM)	1 to 16 (≈ 2.17 to 34.7 nM)	1 to 16 (≈ 2.17 to 34.7 nM)	1 to 16 (≈ 2.17 to 34.7 nM)	1 to 16 (≈ 2.17 to 34.7 nM)
O=C(OC1CCN(CC(O)(Cn2cncn2)c2ccc(F)cc2F)CC1)c1ccc(F)cc1 (stereo unspecified)	3.9 to 62.5 (≈ 8.47 to 136 nM)	3.9 to 62.5 (≈ 8.47 to 136 nM)	3.9 to 62.5 (≈ 8.47 to 136 nM)	3.9 to 62.5 (≈ 8.47 to 136 nM)	3.9 to 62.5 (≈ 8.47 to 136 nM)	3.9 to 62.5 (≈ 8.47 to 136 nM)					
CN(CCCOc1ccc(F)cc1)CC(O)(Cn1cncn1)c1ccc(F)cc1F (stereo unspecified)							1 to 16 (≈ 2.38 to 38.1 nM)	1 to 16 (≈ 2.38 to 38.1 nM)	1 to 16 (≈ 2.38 to 38.1 nM)	1 to 16 (≈ 2.38 to 38.1 nM)	1 to 16 (≈ 2.38 to 38.1 nM)
CN(CCCOc1ccc([N+](=O)[O-])cc1)CC(O)(Cn1cncn1)c1ccc(F)cc1F (stereo unspecified)							1 (≈ 2.23 nM)	1 (≈ 2.23 nM)	1 (≈ 2.23 nM)	1 (≈ 2.23 nM)	1 (≈ 2.23 nM)
O=C(OC1CCN(CC(O)(Cn2cncn2)c2ccc(F)cc2F)CC1)c1ccccc1Br (stereo unspecified)	3.9 to 62.5 (≈ 7.48 to 120 nM)	3.9 to 62.5 (≈ 7.48 to 120 nM)	3.9 to 62.5 (≈ 7.48 to 120 nM)	3.9 to 62.5 (≈ 7.48 to 120 nM)	3.9 to 62.5 (≈ 7.48 to 120 nM)	3.9 to 62.5 (≈ 7.48 to 120 nM)					
COc1ccc(C(=O)OC2CCN(CC(O)(Cn3cncn3)c3ccc(F)cc3F)CC2)cc1 (stereo unspecified)	3.9 to 62.5 (≈ 8.25 to 132 nM)	3.9 to 62.5 (≈ 8.25 to 132 nM)	3.9 to 62.5 (≈ 8.25 to 132 nM)	3.9 to 62.5 (≈ 8.25 to 132 nM)	3.9 to 62.5 (≈ 8.25 to 132 nM)	3.9 to 62.5 (≈ 8.25 to 132 nM)					
